Data from patent US20210346384A1, “COMBINATIONS OF TGF-BETA INHIBITORS AND CDK INHIBITORS FOR CANCER TREATMENTS” (PFIZER INC., priority 2018, published 2021).

What was measured:
[1] = test system: CT26 tumor cells; test: CT26 syngeneic mouse tumor model (survival and tumor volume); assay type: in vivo; conditions: for Median Survival: CT26 tumor bearing BALB/cJ mice, PF-06952229 30 mg/kg PO BID 7 days on/7 off, palbociclib 10 mg/kg PO BID, PF-06873600 50 mg/kg PO BID, survival endpoint tumor volume 2000 mm^3
Method: CT26 cells were obtained from American Type Culture Collection (ATCC) and cultured in Roswell Park Memorial Institute (RPM11640) supplemented with 10% fetal bovine serum (FBS). All cells were maintained in a humidified incubator at 37° C. with 5% carbon dioxide (CO2). Female Balb/cJ mice were obtained from Jackson Laboratories at 8 weeks of age. To generate the syngeneic model, 0.25 million CT26 tumor cells were subcutaneously implanted into the right flank of female BALB/cJ mice. Tumor bearing mice were randomized into six treatment groups based on average tumor sizes of approximately 50 mm^3 per group, on Day 10 post tumor cell implantation. Study groups included vehicle, 30 mg/kg PF-06952229, 10 mg/kg PD-0332991 (Palbociclib), PF-06873600 (CDK 2/4/6 inhibitor), combination of PF-06952229 +PD-0332991 and combination of PF-06952229+PF-06873600. PF-06952229 was administered orally twice daily (BID) with 7 days on and 7 days off schedule. PD-0332991 or PF-06873600 was administered orally BID continuously, until the end of the study.
Tumor volumes were measured three times a week. Tumor volume was calculated based on two dimensional caliper measurement with cubic millimeter volume calculated using the formula (length×width2)×0.5. Mice were sacrificed when the tumor volumes reached 2000 mm^3, which was the survival endpoint for this study. Survival curves were plotted using GraphPad Prism 7 software. Statistical analyses were performed using the Log-rank (Mantel-Cox) test.

[2] = test system: MCF7 human ER+ breast cancer cells; test: MCF7 human ER+ xenograft mouse tumor model (tumor volume); assay type: in vivo; conditions: NSG mice; Day 21 post-treatment initiation; PF-06952229 30 mg/kg PO BID 7 on/7 off, PD-0332991 10 mg/kg PO BID, PF-05279929 10 mg/kg SC twice per week; result in words
Method: MCF7 human ER^+ breast cancer cells were obtained from American Type Culture
Collection (ATCC) and cultured in Roswell Park Memorial Institute (RPMI1640) supplemented with 10% fetal bovine serum (FBS). All cells were maintained in a humidified incubator at 37° C. with 5% carbon dioxide (CO2). Female NSG mice were obtained from Jackson Laboratories at 7 weeks of age. To generate the xenograft model, 17β-ESTRADIOL pellets (0.36 mg, 90-day release) were subcutaneously implanted into the left flank of female NSG mice, 7 days before the tumor cell implantation. Then 5 million MCF7 cancer cells were subcutaneously implanted into the right axial region of female NSG mice. Tumor-bearing mice were randomized into treatment groups based on average tumor sizes of approximately 180 mm^3, on Day 27 post-tumor cell implantation, and treatments were initiated. […]
Tumor volumes were measured two times a week. Tumor volume was calculated based on two-dimensional caliper measurement with cubic millimeter volume calculated using the formula (length×width^2)×0.5. Body weights were measured two times a week. […] Comparisons of treated groups to control group or to other treated groups are made using a t statistic under the ANCOVA model with fold change and the associated 95% confidence interval calculated.

[3] = test system: pSMAD2; test: pSMAD2 Bioassay of MCF7 xenograft tumor samples; assay type: in vivo, human; conditions: tumor samples Day 21 post-treatment initiation; result in words
Method: pSMAD2 Bioassay: Tumor samples were collected and snap-frozen in 2.0 mL cryogenic tubes (Nalgene™) prior to analysis. Thawed tumor samples were homogenized in cell extraction buffer (Invitrogen, Carlsbad, Calif.) with addition of protease and phosphatase inhibitors. Tumor lysates were centrifuged to pellet insoluble debris, and the clarified supernatants were transferred to new tubes. pSmad2 was measured using a 6-Plex TGFbeta Signaling Magnetic Bead Kit (Millipore, Burlington, Mass.). All assays were carried out at room temperature. After blocking a 96-well black round-bottom plate with assay buffer for 10 minutes, 25 μL of the working microsphere bead mixture (beads were diluted to 1× with assay buffer from kit) and 25 μL of 1:10 diluted tumor lysate (1:10 dilution with assay buffer) were added to the plate. […] After washing, the beads were resuspended in 150 μL/well of sheath fluid (Bio-Rad catalog # 171-000055) and analyzed using a Bio-Plex 200 analyzer (Bio-Rad, Hercules Calif.). The mean fluorescence intensity (MFI) from each well was determined using Bio-Plex Manager Software, version 6.1 (Bio-Rad). […]
Total Smad2 Bioassay: PathScan Total Smad2 Sandwich ELISA Kit (Cell signaling, Catolog #7244C) was used to determine the total Smad2 protein according to manufacturer's instructions. […] The absorbance of the samples at 450 nm was measured on a Spectramax plate reader (Molecular Devices).

[4] = test system: pS807/811 Rb; test: Phospho-Rb Ser807/811 Bioassay of MCF7 xenograft tumor lysates; conditions: tumor samples Day 21 post-treatment initiation; result in words

## CC(C)c1cnc(-c2cc(Cl)ccc2F)cc1Nc1ccncc1C(=O)NC(CO)CO [PF-06952229, 4-(2-(5-chloro-2-fluorophenyl)-5-isopropylpyridin-4-ylamino)-N-(1,3-dihydroxypropan-2-yl)nicotinamide]
[1]
  Median Survival: 24 days
[1]; Day 17 post-treatment initiation, result in words
  Tumor growth inhibition: did not significantly inhibit tumor growth
[1]; Day 40 post-treatment initiation, result in words
  Survival: did not significantly increase survival
[2]
  Tumor growth inhibition: did not significantly inhibit tumor growth
[3]
  Inhibition of pSMAD2: significant inhibition of pSMAD2
[4]
  pS807/811 Rb levels: slight increase

## C[C@@]1(O)CCC[C@H]1n1c(=O)c(C(F)F)cc2cnc(NC3CCN(S(C)(=O)=O)CC3)nc21 [PF-06873600]
[1]
  Median Survival: 26.5 days

## CC(=O)c1c(C)c2cnc(Nc3ccc(N4CCNCC4)cn3)nc2n(C2CCCC2)c1=O [Palbociclib, 6-acetyl-8-cyclopentyl-5-methyl-2-(5-piperazin-1-yl-pyridin-2-ylamino)-8H-pyrido[2,3-d]pyrimidin-7-one, reference compound]
[1]
  Median Survival: 26.5 days
[4]
  pS807/811 Rb levels: slight decrease
